Experimental data: the supplement of paper PMC10331698
± gives the standard deviation of the averaged measurements.

What was measured:
Experiment in all cases: level (log10 ratio to DMSO vehicle control); higher = higher biomarker level / cell amount than vehicle control
Settings in all cases: in DMSO
[1] = compound: O=C(O)C(F)(F)C(F)(F)C(F)(F)C(F)(F)C(F)(F)C(F)(F)C(F)(F)C(F)(F)C(F)(F)C(F)(F)C(F)(F)C(F)(F)C(F)(F)F [Perfluorotetradecanoic acid]
Experimental: (§1)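 BioMAP Diversity Plus panel of 12 human primary cell co-culture systems (3C, 4H, LPS, SAg, BT, BF4T, BE3C, CASM3C, HDF3CGF, KF3CT, MyoF, Mphg). Compounds were added 1 h before stimulation and left for 24 h (MyoF 48 h; BT 72 h for soluble read-outs or 6 d for IgG). Biomarkers were read by ELISA, cytotoxicity by SRB, PBMC viability and proliferation by Alamar Blue. Each well value was divided by the mean of 8 DMSO control wells on the same plate and log10 transformed; duplicate blinded samples were tested at 4 concentrations.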

1-(Perfluorohexyl)octane = compound: CCCCCCCCC(F)(F)C(F)(F)C(F)(F)C(F)(F)C(F)(F)C(F)(F)F [1-(Perfluorohexyl)octane]
Experimental: as §1

[2] = compound: O=C(O)CCC(F)(F)C(F)(F)C(F)(F)F [3:3 Fluorotelomer carboxylic acid]
Experimental: as §1

Azathioprine = compound: Cn1cnc([N+](=O)[O-])c1Sc1ncnc2[nH]cnc12 [Azathioprine]
Experimental: as §1

[3] = compound: O=C(O)C(F)(F)OC(F)(F)C(F)(F)OC(F)(F)C(F)(F)C(F)(F)C(F)(F)F [Perfluoro-3,6-dioxadecanoic acid]
Experimental: as §1

1H,1H-Heptafluorobutanol = compound: OCC(F)(F)C(F)(F)C(F)(F)F [1H,1H-Heptafluorobutanol]
Experimental: as §1

[4] = compound: C=C(C)C(=O)OCC(F)(F)C(F)(F)C(F)(F)C(F)(F)C(F)(F)C(F)(F)C(F)(F)F
Experimental: as §1

Test System | level (log10) ([1]; 6700 nM) | level (log10) ([1]; 20000 nM) | level (log10) (1-(Perfluorohexyl)octane; 6700 nM) | level (log10) (1-(Perfluorohexyl)octane; 20000 nM) | level (log10) ([2]; 6700 nM) | level (log10) ([2]; 20000 nM) | level (log10) ([2]; 60000 nM) | level (log10) (Azathioprine; 1400 nM) | level (log10) (Azathioprine; 4200 nM) | level (log10) (Azathioprine; 13000 nM) | level (log10) (Azathioprine; 38000 nM) | level (log10) ([3]; 6700 nM) | level (log10) ([3]; 20000 nM) | level (log10) ([3]; 60000 nM) | level (log10) (1H,1H-Heptafluorobutanol; 6700 nM) | level (log10) (1H,1H-Heptafluorobutanol; 20000 nM) | level (log10) (1H,1H-Heptafluorobutanol; 60000 nM) | level (log10) ([4]; 6700 nM) | level (log10) ([4]; 20000 nM)
CASM3C:CD106/VCAM-1 | -0.023 ± 0.041 | -0.0065 ± 0.073 | -0.023 ± 0.0014 | -0.0115 ± 0.021 | -0.0255 ± 0.0035 | -0.03 ± 0.0057 | -0.0295 ± 0.015 | -0.0125 ± 0.022 | -0.0155 ± 0.0092 | -0.0485 ± 0.018 | -0.136 ± 0.023 | 0.001 ± 0.011 | -0.0145 ± 0.0092 | 0.0065 ± 0.037 | 0.0035 ± 0.033 | 0.0065 ± 0.012 | -0.0015 ± 0.0092 | 0.011 ± 0.0014 | -0.0155 ± 0.046
CASM3C:CD141/Thrombomodulin | 0.0555 ± 0.064 | 0.056 ± 0.044 | -0.0145 ± 0.00071 | -0.0165 ± 0.03 | -0.0065 ± 0.005 | -0.0085 ± 0.011 | -0.0185 ± 0.0035 | -0.004 ± 0.011 | -0.057 ± 0.035 | -0.043 ± 0.025 | -0.0405 ± 0.1 | -0.022 | -0.0225 ± 0.00071 | 0.0315 ± 0.046 | -0.01 ± 0.013 | -0.0065 ± 0.0021 | -0.0145 ± 0.005 | 0.002 ± 0.048 | -0.0265 ± 0.035
CASM3C:CD142/Tissue Factor | -0.005 ± 0.038 | -0.002 ± 0.041 | -0.0265 ± 0.028 | -0.0295 ± 0.005 | 0.0015 ± 0.012 | -0.0015 ± 0.013 | -0.0305 ± 0.054 | -0.0115 ± 0.015 | -0.026 ± 0.034 | -0.0345 ± 0.021 | -0.0295 ± 0.025 | 0.001 | -0.008 ± 0.0042 | 0.0105 ± 0.052 | 0.0005 ± 0.0078 | -0.0225 ± 0.013 | -0.015 ± 0.0057 | 0.002 ± 0.0057 | -0.0195 ± 0.0021
CASM3C:CXCL8/IL-8 | 0.012 ± 0.016 | 0.016 ± 0.028 | -0.001 ± 0.017 | 0.006 ± 0.0099 | -0.0025 ± 0.0021 | -0.008 ± 0.0014 | 0.0085 ± 0.022 | -0.0095 ± 0.0064 | -0.023 ± 0.0085 | -0.023 ± 0.0057 | -0.009 ± 0.024 | -0.0005 ± 0.013 | -0.008 | 0.023 ± 0.028 | 0.007 ± 0.0099 | 0.0045 ± 0.021 | 0.014 ± 0.04 | -0.015 ± 0.018 | -0.001 ± 0.016
CASM3C:CXCL9/MIG | -0.0375 ± 0.042 | 0.0295 ± 0.057 | -0.0115 ± 0.0021 | 0.0255 ± 0.005 | 0.004 ± 0.0028 | 0.008 ± 0.0099 | 0.002 | 0.012 ± 0.033 | -0.0135 ± 0.005 | 0.008 ± 0.0057 | 0.0525 ± 0.042 | -0.006 ± 0.0085 | -0.0045 ± 0.015 | 0.0155 ± 0.06 | 0.003 ± 0.0014 | -0.006 ± 0.013 | 0.015 ± 0.044 | 0.0005 ± 0.011 | 0.014 ± 0.014
CASM3C:HLA-DR | -0.0195 ± 0.0078 | -0.022 ± 0.073 | -0.0155 ± 0.015 | -0.0125 ± 0.005 | 0.007 ± 0.0085 | 0.006 ± 0.023 | -0.009 ± 0.028 | -0.0165 ± 0.0021 | -0.0115 ± 0.026 | -0.0405 ± 0.011 | -0.055 ± 0.031 | 0.002 ± 0.03 | 0.0015 ± 0.011 | 0.0245 ± 0.026 | 0.015 ± 0.0057 | -0.004 ± 0.0028 | 0.011 ± 0.0028 | -0.015 ± 0.017 | -0.0125 ± 0.0021
CASM3C:IL-6 | 0.002 ± 0.051 | 0.0135 ± 0.094 | -0.019 ± 0.031 | 0.0205 ± 0.023 | -0.029 ± 0.016 | -0.0295 ± 0.015 | 0.0085 ± 0.018 | 0.011 ± 0.051 | -0.045 ± 0.0057 | -0.051 ± 0.0085 | -0.042 ± 0.072 | -0.0205 ± 0.005 | -0.0205 ± 0.0021 | -0.0085 ± 0.03 | 0 ± 0.033 | -0.0125 ± 0.011 | 0.018 ± 0.042 | -0.0235 ± 0.0092 | 0.015 ± 0.013
CASM3C:LDLR | -0.0135 ± 0.013 | -0.028 ± 0.014 | -0.0125 ± 0.00071 | 0.019 ± 0.014 | -0.0165 ± 0.00071 | -0.0105 ± 0.0035 | 0.011 ± 0.027 | -0.0055 ± 0.018 | -0.01 ± 0.0085 | -0.024 ± 0.023 | -0.034 ± 0.011 | 0.0015 ± 0.022 | -0.016 ± 0.0028 | -0.0065 ± 0.023 | -0.0025 ± 0.0035 | 0.012 ± 0.011 | 0.006 ± 0.03 | -0.0135 ± 0.0021 | 0.03 ± 0.024
CASM3C:M-CSF | 0.006 ± 0.025 | -0.0065 ± 0.043 | -0.0095 ± 0.013 | 0.0125 ± 0.036 | -0.0055 ± 0.037 | -0.02 ± 0.018 | 0.0185 ± 0.028 | 0.0065 ± 0.00071 | -0.0255 ± 0.018 | -0.0305 ± 0.0064 | -0.007 ± 0.038 | -0.0055 ± 0.035 | -0.024 ± 0.0057 | 0.0115 ± 0.073 | 0.006 ± 0.021 | 0.03 ± 0.041 | 0.038 ± 0.016 | -0.0155 ± 0.0092 | 0.0165 ± 0.03
CASM3C:PAI-I | 0.007 ± 0.0028 | 0.013 ± 0.0014 | -0.011 ± 0.0014 | 0.0035 ± 0.0078 | -0.002 ± 0.0057 | -0.0035 ± 0.00071 | 0.009 ± 0.0014 | -0.0045 ± 0.0021 | 0.007 ± 0.0057 | 0.007 ± 0.0014 | 0.01 ± 0.0042 | 0.001 ± 0.0042 | 0.003 ± 0.0071 | 0.011 ± 0.011 | 0.0015 ± 0.0092 | -0.0045 ± 0.00071 | 0.009 ± 0.0042 | -0.005 ± 0.0014 | -0.005 ± 0.0028
CASM3C:Proliferation | 0.0075 ± 0.028 | -0.018 ± 0.0057 | -0.0005 ± 0.067 | 0.0175 ± 0.046 | -0.01 ± 0.011 | 0.005 ± 0.0042 | 0.0005 ± 0.022 | -0.0225 ± 0.037 | -0.0225 ± 0.005 | -0.0785 ± 0.012 | -0.147 ± 0.028 | 0.0135 ± 0.0035 | -0.0165 ± 0.029 | 0.0015 ± 0.018 | -0.005 ± 0.014 | 0.0045 ± 0.025 | 0.024 ± 0.055 | 0.0065 ± 0.033 | -0.022 ± 0.018
CASM3C:SRB | -0.011 ± 0.0028 | 0.0025 ± 0.0092 | -0.0025 ± 0.0035 | -0.0085 ± 0.00071 | 0.005 ± 0.016 | 0.002 ± 0.014 | -0.0055 ± 0.011 | 0.0015 ± 0.0092 | 0.003 ± 0.0057 | -0.013 ± 0.0014 | -0.0365 ± 0.0078 | 0.003 ± 0.0071 | -0.0025 ± 0.0092 | -0.0005 ± 0.0092 | -0.0025 ± 0.0092 | 0.0125 ± 0.0021 | 0.009 ± 0.0028 | -0.0005 ± 0.00071 | 0 ± 0.0071
CASM3C:Serum Amyloid A | 0.033 ± 0.048 | -0.007 ± 0.014 | -0.02 ± 0.0057 | 0.0055 ± 0.066 | -0.0055 ± 0.029 | -0.004 ± 0.0042 | -0.0005 ± 0.032 | 0.033 ± 0.021 | -0.0125 ± 0.0021 | -0.031 ± 0.0085 | -0.0485 ± 0.066 | 0.012 ± 0.025 | -0.004 ± 0.023 | 0.0405 ± 0.0021 | -0.029 ± 0.04 | 0.012 ± 0.035 | 0.018 ± 0.021 | -0.014 ± 0.0028 | -0.009 ± 0.0042
HDF3CGF:CCL2/MCP-1 | 0.0235 ± 0.016 | 0.0285 ± 0.029 | -0.0185 ± 0.005 | -0.004 ± 0.013 | 0.004 ± 0.013 | 0.0005 ± 0.0035 | 0.015 ± 0.041 | -0.0095 ± 0.018 | -0.005 ± 0.0057 | -0.0255 ± 0.0035 | -0.043 ± 0.024 | 0.0135 ± 0.018 | -0.017 ± 0.0071 | -0.043 ± 0.0014 | 0.001 ± 0.014 | 0.0225 ± 0.021 | -0.009 ± 0.03 | -0.0205 ± 0.03 | -0.007 ± 0.0042
HDF3CGF:CD54/ICAM-1 | -0.0015 ± 0.029 | -0.023 ± 0.033 | 0.0025 ± 0.005 | -0.0055 ± 0.037 | -0.0025 ± 0.0078 | -0.0135 ± 0.015 | -0.017 ± 0.0028 | -0.0065 ± 0.011 | 0.0045 ± 0.0078 | 0.0015 ± 0.019 | -0.0195 ± 0.012 | -0.0025 ± 0.021 | -0.0125 ± 0.026 | -0.038 ± 0.04 | -0.008 ± 0.0042 | 0.0005 ± 0.0021 | 0.0045 ± 0.0092 | -0.008 ± 0.0085 | -0.01 ± 0.014
